Data as given in publication PMC9023165, “Antioxidant, Enzyme Inhibitory, and Molecular Docking Approaches to the Antidiabetic Potentials of Bioactive Compounds from Persicaria hydropiper L” (Evidence-based Complementary and Alternative Medicine : eCAM, 2022).
Converted amounts (≈) assume the structure as drawn. Read-outs that look alike come from different tables or passages of the source.

Key:
α-glucosidase enzyme = α-glucosidase enzyme (Saccharomyces cerevisiae, UniProt P53341); assay: α-glucosidase inhibition assay; format: biochemical
Procedure: For α-glucosidase inhibition assay, 50 µL solution containing 0.5 U·mL^−1 was added to 50 µL phosphate buffer (6.8 pH) and was added to various concentrations of test samples. The resultant mixture was properly mixed and stored at 37°C for fifteen min. After incubation, 100 µL (3 mM) pNPG solution was added to it. […] Absorption was measured at 405 nm using 96-well microplate reader. Absorption of mixture without addition of test samples was used as control and without substrate was used as blank. Percent inhibitions were calculated using the formula(3) % Inhibition=1−absorbance of sample−absorbance of blank/absorbance of control×100.

α-amylase enzyme = molecular target: T1, α-amylase enzyme (Sus scrofa, UniProt P00690); assay: α-amylase inhibition assay; format: biochemical; conditions: Mean ± SEM
T1 sequence (P00690 16-511): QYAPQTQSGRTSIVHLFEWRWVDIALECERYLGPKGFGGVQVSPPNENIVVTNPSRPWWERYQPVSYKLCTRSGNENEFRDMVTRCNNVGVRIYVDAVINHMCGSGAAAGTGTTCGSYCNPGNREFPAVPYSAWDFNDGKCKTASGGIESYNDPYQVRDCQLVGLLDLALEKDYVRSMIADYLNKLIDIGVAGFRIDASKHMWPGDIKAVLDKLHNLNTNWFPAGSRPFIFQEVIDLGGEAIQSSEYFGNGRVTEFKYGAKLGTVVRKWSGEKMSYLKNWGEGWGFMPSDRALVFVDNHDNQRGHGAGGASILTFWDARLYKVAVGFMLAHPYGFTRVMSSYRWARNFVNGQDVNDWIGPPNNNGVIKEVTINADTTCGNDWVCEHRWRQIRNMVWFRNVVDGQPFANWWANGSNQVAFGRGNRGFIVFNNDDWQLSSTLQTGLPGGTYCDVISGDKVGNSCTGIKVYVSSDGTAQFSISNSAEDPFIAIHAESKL
Procedure: Using this assay, a previously reported protocol was followed. […] Subsequently, 100 µL of 0.5 mg·mL^−1α-amylase solution was added to the mixture and again incubated for 10 min at 25°C. Reaction was stopped via the addition of 200 µL of dinitrosalicylic acid was added and incubated for an additional 5 min in boiling water bath and allowed to cool again. Finally, 50 µL solutions was transferred to 96-well microplate reader and further diluted to 200 µL via the addition of distilled water. Absorbencies were recorded at 540 nm and percent inhibitions were calculated using the equation(4) % Inhibition=1−Δ A Samples/Δ A Control×100.

ABTS antiradicals assay = assay: ABTS antiradicals assay
Procedure: ABTS antiradicals' study was performed following our earlier reported protocol. For preparation of ABTS solution, 192 mg of ABTS salt was mixed in distilled water with subsequent transfer to fifty-milliliter flask and volume adjustments. Thereafter, 1 mL of the previous solution was added to 17 µL of 140 mM potassium persulphate and the mixture was left in the dark for 24 hours. Subsequently, 1 mL of the reaction mixture was diluted to 50 mL using methanol to obtain the final ABTS dilution used in the assay. Consequently, 190-microliter ABTS solution was added to 10 µL sample solutions and in 96-well plates and were incubated for 2 hrs in dark place at room temperature. After the incubation, decline in color intensity of ABTS was measured at 734 nm via microplate reader. […] Percent ABTS scavenging was determined using equation:(2) %ABTS scavenging=Control absorbance−Sample absorbance/Control absorbance×100.

DPPH antiradicals assay = assay: DPPH antiradicals assay
Procedure: DPPH antiradicals study was conducted in accordance with our previously published protocol. Initially, 0.1% methanolic-DPPH solution was made and its 100 µL was mixed with same volume (100 µL) of test samples in 96-well plates, followed by incubation for about thirty min in a dark place 25 ± 3°C. […] Percent scavenging was estimated as follows:(1) % scavenging=A0−A1/A0×100.

α-glucosidase enzyme, sequence (P53341 whole entry): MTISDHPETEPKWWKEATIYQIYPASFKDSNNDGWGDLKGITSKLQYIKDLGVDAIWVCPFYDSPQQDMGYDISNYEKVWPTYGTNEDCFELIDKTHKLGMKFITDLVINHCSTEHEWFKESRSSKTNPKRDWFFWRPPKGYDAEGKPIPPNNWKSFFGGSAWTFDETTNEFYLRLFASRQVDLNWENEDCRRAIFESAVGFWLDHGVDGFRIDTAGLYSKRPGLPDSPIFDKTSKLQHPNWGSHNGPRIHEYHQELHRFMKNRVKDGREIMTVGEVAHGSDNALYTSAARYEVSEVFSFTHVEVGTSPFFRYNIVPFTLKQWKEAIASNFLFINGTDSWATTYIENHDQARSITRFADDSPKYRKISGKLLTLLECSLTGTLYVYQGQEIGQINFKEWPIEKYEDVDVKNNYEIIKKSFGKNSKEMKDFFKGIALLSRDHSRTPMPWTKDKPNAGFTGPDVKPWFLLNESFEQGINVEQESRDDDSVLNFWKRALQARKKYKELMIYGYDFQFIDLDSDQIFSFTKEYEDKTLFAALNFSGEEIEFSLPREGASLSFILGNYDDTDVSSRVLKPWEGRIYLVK

C[C@H]1O[C@H](O[C@H]2[C@H](O)[C@@H](O)[C@@H](O[C@H]3[C@H](O)[C@@H](O)C(O)O[C@@H]3CO)O[C@@H]2CO)[C@H](O)[C@@H](O)[C@@H]1N[C@H]1C=C(CO)[C@@H](O)[C@H](O)[C@H]1O (stereo partly drawn) [Acarbose]
α-Glucosidase inhibition assay % enzyme inhibition (α-glucosidase enzyme): 89.42 ± 0.55 77.52 ± 0.62 71. 36 ± 0.49 62.39 ± 0.49 55.47 ± 0.52% | α-Amylase Inhibition assay % enzyme inhibition (α-amylase enzyme; 62.50 µg·mL^−1): 59.36 ± 0.57% | α-Amylase Inhibition assay % enzyme inhibition (α-amylase enzyme; 125 µg·mL^−1): 65.48 ± 0.74% | α-Amylase Inhibition assay % enzyme inhibition (α-amylase enzyme; 250 µg·mL^−1): 73.62 ± 0.40% | α-Amylase Inhibition assay % enzyme inhibition (α-amylase enzyme; 500 µg·mL^−1): 78.60 ± 0.46% | α-Amylase Inhibition assay % enzyme inhibition (α-amylase enzyme; 1000 µg·mL^−1): 85.72 ± 0.66%

CCC(/C=C/C(C)C1CCC2C3CC=C4CC(O)CCC4(C)C3CCC12C)C(C)C (stereo not drawn) [Ph-2, (E)-17-(5-ethyl-6-methylhept-3-en-2-yl)-10,13-dimethyl-2,3,4,7,8,9,10,11,12,13,14,15,16,17-tetradecahydro-1H-cyclopenta[a]phenanthren-3-ol]
IC50 against ABTS radicals (ABTS antiradicals assay): 160 µg/mL (≈ 388 µM) | % inhibition against ABTS radicals (ABTS antiradicals assay; 31.25 µg·mL^−1): 17.44% | % inhibition against ABTS radicals (ABTS antiradicals assay; 62.5 µg·mL^−1): 27.88% | % inhibition against ABTS radicals (ABTS antiradicals assay; 125 µg·mL^−1): 42.89% | % inhibition against ABTS radicals (ABTS antiradicals assay; 250 µg·mL^−1): 60.56% | % inhibition against ABTS radicals (ABTS antiradicals assay; 500 µg·mL^−1): 72.68% | % inhibition against ABTS radicals (ABTS antiradicals assay; 1000 µg·mL^−1): 80.63% | IC50 DPPH scavenging (DPPH antiradicals assay): 200 µg/mL (≈ 485 µM) | % scavenging effect against DPPH radicals (DPPH antiradicals assay; 31.25 µg·mL^−1): 11.83% | % scavenging effect against DPPH radicals (DPPH antiradicals assay; 62.50 µg·mL^−1): 21.33% | % scavenging effect against DPPH radicals (DPPH antiradicals assay; 125 µg·mL^−1): 34.16% | % scavenging effect against DPPH radicals (DPPH antiradicals assay; 250 µg·mL^−1): 59.66% | % scavenging effect against DPPH radicals (DPPH antiradicals assay; 500 µg·mL^−1): 68% | % scavenging effect against DPPH radicals (DPPH antiradicals assay; 1000 µg·mL^−1): 79.33%

CC(=O)OC1COC(=O)C1C (stereo not drawn) [Ph-3, 4-methyl-5-oxo-tetrahydrofuran-3-yl acetate]
IC50 against ABTS radicals (ABTS antiradicals assay): 320 µg/mL | % inhibition against ABTS radicals (ABTS antiradicals assay; 1000 µg·mL^−1): 67.16% | IC50 DPPH scavenging (DPPH antiradicals assay): 550 µg/mL | % scavenging effect against DPPH radicals (DPPH antiradicals assay; 31.25 µg·mL^−1): 9.2% | % scavenging effect against DPPH radicals (DPPH antiradicals assay; 62.50 µg·mL^−1): 18.5% | % scavenging effect against DPPH radicals (DPPH antiradicals assay; 125 µg·mL^−1): 29.66% | % scavenging effect against DPPH radicals (DPPH antiradicals assay; 250 µg·mL^−1): 33.33% | % scavenging effect against DPPH radicals (DPPH antiradicals assay; 500 µg·mL^−1): 42% | % scavenging effect against DPPH radicals (DPPH antiradicals assay; 1000 µg·mL^−1): 56%

COC(=O)c1ccc(O)c(OC)c1 [Ph-4, methyl 4-hydroxy-3-methoxybenzoate]
IC50 against ABTS radicals (ABTS antiradicals assay): 610 µg/mL (≈ 3350 µM) | % inhibition against ABTS radicals (ABTS antiradicals assay; 1000 µg·mL^−1): 53.66% | IC50 DPPH scavenging (DPPH antiradicals assay): 650 µg/mL (≈ 3570 µM) | % scavenging effect against DPPH radicals (DPPH antiradicals assay; 31.25 µg·mL^−1): 7.6% | % scavenging effect against DPPH radicals (DPPH antiradicals assay; 62.50 µg·mL^−1): 12.06% | % scavenging effect against DPPH radicals (DPPH antiradicals assay; 125 µg·mL^−1): 19.85% | % scavenging effect against DPPH radicals (DPPH antiradicals assay; 250 µg·mL^−1): 27.48% | % scavenging effect against DPPH radicals (DPPH antiradicals assay; 500 µg·mL^−1): 48.73% | % scavenging effect against DPPH radicals (DPPH antiradicals assay; 1000 µg·mL^−1): 60.26%

CCOc1cc(C(C)=O)c2cc(OC)ccc2c1 [Ph-5, 1-(3-ethoxy-7-methoxynaphthalen-1-yl)ethanone]
IC50 against ABTS radicals (ABTS antiradicals assay): 350 µg/mL (≈ 1430 µM) | % inhibition against ABTS radicals (ABTS antiradicals assay; 1000 µg·mL^−1): 69.16% | IC50 against ABTS radicals (ABTS antiradicals assay; in Figure 3): 390 µg/mL (≈ 1600 µM) | IC50 DPPH scavenging (DPPH antiradicals assay): 390 µg/mL (≈ 1600 µM) | % scavenging effect against DPPH radicals (DPPH antiradicals assay; 1000 µg·mL^−1): 58.33%

COc1cc(/C=C/c2ccccc2)oc(=O)c1 [Ph-6, (E)-4-methoxy-6-styryl-2H-pyran-2-one]
IC50 against ABTS radicals (ABTS antiradicals assay): 550 µg/mL (≈ 2410 µM) | % inhibition against ABTS radicals (ABTS antiradicals assay; 1000 µg·mL^−1): 61% | IC50 DPPH scavenging (DPPH antiradicals assay): 910 µg/mL (≈ 3990 µM) | % scavenging effect against DPPH radicals (DPPH antiradicals assay; 1000 µg·mL^−1): 44%

O=C1O[C@H]([C@@H](O)CO)C(O)=C1O [ascorbic acid, reference compound]
IC50 DPPH scavenging (DPPH antiradicals assay): 40 µg/mL (≈ 227 µM) | % scavenging effect against DPPH radicals (DPPH antiradicals assay; 31.25 µg·mL^−1): 45% | % scavenging effect against DPPH radicals (DPPH antiradicals assay; 62.50 µg·mL^−1): 56.83% | % scavenging effect against DPPH radicals (DPPH antiradicals assay; 125 µg·mL^−1): 62.33% | % scavenging effect against DPPH radicals (DPPH antiradicals assay; 250 µg·mL^−1): 72.85% | % scavenging effect against DPPH radicals (DPPH antiradicals assay; 500 µg·mL^−1): 83.33% | % scavenging effect against DPPH radicals (DPPH antiradicals assay; 1000 µg·mL^−1): 91.80%
